Literature values as cited in article PMC13179673 (European journal of pharmaceutical sciences : official …, 2025).

Experiments:
[1] = system: OHT rabbit eyes; design: method as in Behar-Cohen et al., 1996; details: eyedrop, ref Behar-Cohen et al., 1996
[2] = biological pH at 37°C

[NH-]c1c[n+](N2CCOCC2)no1 [SIN-1, linsidomine]
duration of IOP-lowering effect [1]: ≤ 3 h | half-life [2]: < 1 h
